Legend:
[1] = tested on: Human immunodeficiency virus 1; experiment: Antiviral activity against wild type HIV1 3B infected in human MT4 cells assessed as inhibition of virus-induced cytopathic effect after 4 days by MTT assay; format: functional, organism-based; details: Human immunodeficiency virus 1, 3B, MT4, 96 h
[2] = Selectivity index, ratio of CC50 for human MT4 cells to EC50 for wild type HIV1 3B; format: toxicity, cell-based; details: read-out: Ratio CC50/EC50
[3] = Cytotoxicity against human MT4 cells after 4 days by MTT assay; format: cell-based
[4] = tested on: Human immunodeficiency virus 1; experiment: Antiviral activity against HIV1 bearing reverse transcriptase K103N and Y181C double mutation infected in human MT4 cells assessed as inhibition of virus-induced cytopathic effect after 4 days by MTT assay; format: functional, organism-based; details: Human immunodeficiency virus 1, MT4, 96 h
[5] = target: Human immunodeficiency virus type 1 reverse transcriptase (Human immunodeficiency virus 1, UniProt Q72547); experiment: Inhibition of HIV1 reverse transcriptase

Structure (SMILES)	EC50 [1] [nM]	selectivity ratio [2]	CC50 at 96 h [3] [nM]	EC50 [4] [nM]	IC50 [5] [nM]
Cc1cc(Oc2ccc3cc(C#N)ccc3c2Br)nc(Nc2ccc(C#N)cc2)n1	7	> 40100	> 274000	220	–
Cc1cc(Oc2ccc3cc(C#N)ccc3c2)nc(Nc2ccc(C#N)cc2)n1	3	> 96500	> 332000	332000	–
N#Cc1ccc(Nc2nccc(Oc3ccc4cc(C#N)ccc4c3)n2)cc1	3	20500	> 68800	6300	8720
N#Cc1ccc(Nc2nccc(Oc3ccc4cc(C#N)ccc4c3Br)n2)cc1	2	181000	283000	240	3010
Cc1cnc(Nc2ccc(C#N)cc2)nc1Oc1ccc2cc(C#N)ccc2c1	7	> 44900	> 332000	332000	–
N#Cc1ccc(Nc2nccc(Oc3cc4ccc(C#N)cc4cc3Br)n2)cc1	1	50400	> 56500	> 56500	1130
COc1c(Oc2ccnc(Nc3ccc(C#N)cc3)n2)ccc2cc(C#N)ccc12	2	≥ 134000	> 211000	380	2290
COc1cc2cc(C#N)ccc2cc1Oc1ccnc(Nc2ccc(C#N)cc2)n1	2	> 158000	> 318000	319000	1320
COc1cc2cc(C#N)ccc2c(OC)c1Oc1ccnc(Nc2ccc(C#N)cc2)n1	5	≥ 25000	> 118000	160	94.5
N#Cc1ccc(Nc2nccc(Oc3ccc4cc(C#N)ccc4c3Cl)n2)cc1	6	48000	269000	700	–
COc1cc2cc(C#N)ccc2c(Cl)c1Oc1ccnc(Nc2ccc(C#N)cc2)n1	7	≥ 25700	> 191000	150	–
Cc1cnc(Nc2ccc(C#N)cc2)nc1Oc1ccc2cc(C#N)ccc2c1Br	12	> 23800	> 274000	830	–
CC(C)Nc1cccnc1N1CCN(C(=O)c2cc3cc(NS(C)(=O)=O)ccc3[nH]2)CC1 [DELAVIRDINE]	–	–	> 3620	> 3620	–
O=C1Nc2ccc(Cl)cc2[C@@](C#CC2CC2)(C(F)(F)F)O1 [EFAVIRENZ]	–	–	> 63400	560	–
Cc1ccnc2c1NC(=O)c1cccnc1N2C1CC1 [NEVIRAPINE]	75	–	> 15000	> 15000	–

— ChEMBL document CHEMBL1177663, “Synthesis and anti-HIV activity of 2-naphthyl substituted DAPY analogues as non-nucleoside reverse transcriptase inhibitors” (Bioorg Med Chem, 2010)
